“And” between values parts separate entries of the source, which are not always exact repeats. Equal values may be shown once. Where a name gives a salt, the structure may show the parent alone. Read-outs that look alike come from different tables or passages of the source.
Legend:
[1] = test system: inflamed rat hind paw (carrageenan); assay: c) In vivo experiments according to Randall-Selitto (carrageenan inflammatory pain, mechanical nociceptive threshold; isobolographic analysis; conditions: peak effect 15 min p. appl., interval in brackets; for ED50: Rattus norvegicus, 0.25 h
Method: The weight ratios of the components (a) and (b) that will lead to a supra-additive effect (synergistic effect) of the inventive pharmaceutical composition may be determined via the test of Randall and Selitto as described in Arch. Int. Pharmacodyn., 1957, 111, 409 to 419, which is a model for inflammatory pain. The respective part of the literature is hereby incorporated by reference and forms part of the present disclosure.
Acute inflammation is induced by an intraplantar injection of 0.1 ml of a carrageenan solution (0.5% in distilled water) into one hind paw. The mechanical nociceptive threshold is measured 4 hours after carrageenan injection using an Algesiometer (Ugo Basile, Italy). The device generates a mechanical force with a linear increase over time. The force is applied to the dorsal surface of the inflamed rat hind paw via a cone-shaped stylus with a rounded tip (2 mm tip diameter). The nociceptive threshold is defined as the force (in grams) at which the rat vocalises (cut-off force 250 g). The mechanical nociceptive threshold is measured at different timepoints after the drug or vehicle administration. The antinociceptive and antihyperalgesic activity of the tested substance is expressed as percentages of the maximal possible effect (% MPE). The group size is n=10.
The interactions studies presented herein were performed using equieffective doses of the two components, calculated from the ratio of the respective ED50 values of the components if administered alone.
The route of administration was intravenous (i.v.) for Tapentadol hydrochloride (A) and intraperitoneal (i.p.) for the anticonvulsants (antiepileptics) Lamotrigine, Lacosamide, Levetiracetam and Retigabine dihydrochloride. […] According to their respective timepoint of peak effect, A was applied 15 min and the anticonvulsant component 15 min before timepoint of measurement of the interaction-experiments (i. e. both components were applied simultaneously). Thus, the time point of ED50 calculation of the combination corresponds to the timepoint of the peak effect of the respective compound.

[2] = test system: male Sprague-Dawley rats with ligated left L5/L6 spinal nerves (tactile allodynia); assay: In vivo experiments according to Chung (spinal nerve ligation, tactile allodynia, electronic von Frey; isobolographic analysis); parameters: species or system rat; conditions: for contra-lateral paw withdrawal threshold, anti-nociceptive effect: 10 mg/kg i.v.; for ED50 (95% confidence interval), anti-allodynic efficacy, single substance / efficacy, increase in the withdrawal threshold of the ipsi-lateral hind paw: i.v.; for ED50 (95% confidence interval), anti-allodynic efficacy, single substance: calculated from peak effect vs. control values at 30 min after administration; for efficacy, increase in the withdrawal threshold of the ipsi-lateral hind paw: maximal efficacy over the doses tested (combination: highest dose 1 mg/kg+2.5 mg/kg), peak effect 30 min after administration
Excerpt: The weight ratios of components (a) and (b) that will lead to a supra-additive effect/synergistic effect of the inventive compositions may be determined in the test of Kim & Chung as described in Kim S H, Chung J M. An experimental model for peripheral mononeuropathy produced by segmental spinal nerve ligation in the rat. Pain 1992; 50: 355-63. Said reference is hereby incorporated by reference and forms part of the disclosure.
Ligatures were applied to the left L5/L6 spinal nerves of male Sprague-Dawley rats (140-160 g body weight, Janvier, Genest St. Isle, France). […] Three to four weeks after the operation the tactile allodynia threshold baseline (withdrawal threshold) was measured on the ipsilateral and contralateral hind paw by an electronic von Frey anaesthesiometer (Somedic, Schweden). After test and measurement of the baseline, (1R,2R)-3-(3-dimethylamino-1-ethyl-2-methyl-propyl)-phenol hydrochloride (hereinafter referred to as tapentadol hydrochloride or tapentadol-HCl), (S)-pregabalin as well as the inventive combination of tapentadol-HCl and (S)-pregabalin were each dissolved in 0.9% NaCl solution and injected by the intravenous (i.v.) route (application volume 5 ml/kg). Animals were randomly assigned to groups of 10 for each test dose and vehicle (0.9% NaCl solution) and tactile withdrawal thresholds were tested 0.5 h before administration and on several time points (0.5, 1 and 3 hours) after intravenous administration. Ipsi- and contralateral hindpaws were tested. The median of the withdrawal threshold for each animal at a given time is calculated from five individual stimulations with the electronic von Frey filament. Withdrawal thresholds of the injured paws are expressed as % MPE (Maximum possible effect) comparing predrug threshold of Chung-Animals (=0% MPE) and control threshold of sham-animals (100% MPE). A cut-off is set at 100% MPE. The effect of each compound and vehicle is calculated for each testing time point as interindividual % MPE value.
Data (anti-allodynic efficacy (% MPE), ipsi-lateral, paw withdrawal threshold (g), ipsi- and conralateral) were analysed by means of a two-factor analysis of variance (ANOVA) with repeated measures. In case of a significant treatment effect, post hoc analysis with Bonferroni adjustment was performed. Results were considered statistically significant if P<0.05.

[3] = test system: rats with tightly ligated L5, L6 spinal nerves (tactile allodynia); assay: b) In vivo experiments according to Chung (anti-allodynic testing, single dose combinations vs sum of single effects); parameters: species or system rat; conditions: 30 min, ± SEM
Excerpt: The left L5 and L6 spinal nerves were exposed by removing a small piece of the paravertebral muscle and a part of the left spinous process of the L5 lumbar vertebra. The L5 and L6 spinal nerves were then carefully isolated and tightly ligated with silk (NC-silk black, USP 5/0, metric 1, Braun Melsungen AG, Melsungen, FRG). After checking hemostasis, the muscle and the adjacent fascia were closed with sutures and the skin was closed with sutures.
After operation, animals were allowed to recover for one week. Animals develop tactile allodynia which is stable for at least five weeks. For the assessment of tactile allodynia the rats were placed on a metal mesh covered with a plastic dome and were allowed to habituate until the exploratory behaviour diminished. Threshold for tactile allodynia was measured with an electronic von Frey anesthesiometer (Somedic, Sweden). Animals randomly assigned to groups of 10 for each test dose and vehicle, were tested 0.5 h before administration and on several time points after administration. The median of the withdrawal threshold for each animal at a given time is calculated from five individual stimulations with the electronic von Frey filament. Withdrawal thresholds of the injured paws are expressed as % maximal possible effect (% MPE) comparing predrug threshold of Chung-animals (=0% MPE) and control threshold of sham-animals (=100% MPE). A cut-off is set at 100% MPE. The effect of each compound and vehicle is calculated for each testing time point (e.g. 0.5, 1, 3 h post administration) as interindividual % MPE value (±SEM). Anti-allodynic efficacy is defined as increase of ipsi-lateral withdrawal threshold without effect on contra-lateral withdrawal threshold. Ten animals have been used in each group.
Effects of drug combinations are compared to the theoretical sum of the effects of each drug tested alone.

[4] = ip, read-out: ED50 of the anticonvulsant applied alone, i.p.
[5] = ip, i.p., read-out: ED50 of the anticonvulsant applied alone

Compound: CCOC(=O)Nc1ccc(NCc2ccc(F)cc2)cc1N [Retigabine dihydrochloride]
- ED50 [1, 4]: 5.09 mg/kg

Compound: CC(C)C[C@H](CN)CC(=O)O [(S)-pregabalin]
- contra-lateral paw withdrawal threshold, anti-nociceptive effect [2]: significant anti-nociceptive effects
- ED50 (95% confidence interval), anti-allodynic efficacy, single substance [2]: 4.20 (3.37-5.43) mg/kg i.v.
- efficacy, increase in the withdrawal threshold of the ipsi-lateral hind paw [2]: 67 % MPE

Compound: Nc1nnc(-c2cccc(Cl)c2Cl)c(N)n1 [Lamotrigine]
- ED50 [1, 5]: 35.3 mg/kg
- ED50 of the anticonvulsant applied alone ([1]; i.p.): 35.25 mg/kg

Compound: CC1(C)O[C@@H]2[C@@H](CO[C@@]3(COS(N)(=O)=O)OC(C)(C)O[C@@H]23)O1 [Topiramate]
- Effect % MPE (time after administration of Tapentadol hydrochloride) ([3]; single substance 1 mg/kg iv): 22 ± 3% (30 min) % MPE

Compound: COC[C@@H](NC(C)=O)C(=O)NCc1ccccc1 [Lacosamide]
- ED50 [1, 4]: 35.9 mg/kg
- Effect % MPE (time after administration of Tapentadol hydrochloride) ([3]; single substance 3 mg/kg iv): 24 ± 4% (30 min) % MPE

Compound: CC[C@@H](C(N)=O)N1CCCC1=O [Levetiracetam]
- ED50 [1, 5]: 986 mg/kg
- Effect % MPE (time after administration of Tapentadol hydrochloride) ([3]; single substance 20 mg/kg iv): 16 ± 4% (30 min) % MPE

Compound: NCC1(CC(=O)O)CCCCC1 [Gabapentin]
- Effect % MPE (time after administration of Tapentadol hydrochloride) ([3]; single substance 10 mg/kg iv (20 min before Tapentadol hydrochloride time point)): 3 ± 3% (30 min) % MPE

Compound: CC[C@@H](c1cccc(O)c1)[C@@H](C)CN(C)C [Tapentadol hydrochloride, (1R,2R)-3-(3-dimethylamino-1-ethyl-2-methyl-propyl)-phenol hydrochloride]
- contra-lateral paw withdrawal threshold, anti-nociceptive effect [2]: significant anti-nociceptive effects
- ED50 (95% confidence interval), anti-allodynic efficacy, single substance [2]: 1.65 (1.20-2.35) mg/kg i.v.
- efficacy, increase in the withdrawal threshold of the ipsi-lateral hind paw [2]: 94 % MPE
- ED50 ([1]; iv, read-out: ED50 of A (Tapentadol hydrochloride) applied alone, i.v.): 1.75 mg/kg
- ED50 of A (Tapentadol hydrochloride) applied alone ([1]; i.v., listed as A, hydrochloride): 1.747 mg/kg and 1.749 mg/kg
- Effect % MPE (time after administration of Tapentadol hydrochloride) ([3]; single substance 1 mg/kg iv, hydrochloride): 18 ± 4% (30 min) % MPE and 13 ± 5% (30 min) % MPE

Source: patent US10206890B2, “Pharmaceutical combination” (priority 2008, dated 2019)
